The values that follow come from patent US20140005163A1 (NOVARTIS AG, priority 2010, published 2014).

A value given as a limit tells only on which side of the number the result lay.

Holding throughout (assay type): biochemical
Assay [1] concerns the target T1, PI3K alpha (Homo sapiens, UniProt P42336).
T1 construct: p85(iSH2) fusion partner (see partner chain) (N); His tag (C); made in house; host or cells: baculovirus; Tn5 (Trichoplusia ni) or TiniPro insect cells
As to the kind of experiment: PI3K alpha kinase assay (Kinase-Glo luminescence). In a few lines: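 PI3K alpha at 10 nM with 1 μM ATP and 10 μg/mL phosphatidylinositol in 10 mM TRIS pH 7.5, 3 mM MgCl2, 50 mM NaCl, 0.05% CHAPS, 1 mM DTT, 60 min at room temperature. Remaining ATP read by Kinase-Glo luminescence. IC50 by 4-parameter fit over 8 concentrations.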
(In general: Kinase-Glo measures the ATP left after a reaction by luminescence.)

The target of assay [2] is T2, PI3K beta (Homo sapiens, UniProt P42338).
T2 construct: for the full-length p110-b subunit are generated and fused by overlapping PCR; p85(iSH2) fusion partner (see partner chain) (N); His tag (C); made in house; host or cells: baculovirus; Tn5 (Trichoplusia ni) or TiniPro insect cells
T2 sequence (P42338 with tags, fused parts or gaps limits assumed): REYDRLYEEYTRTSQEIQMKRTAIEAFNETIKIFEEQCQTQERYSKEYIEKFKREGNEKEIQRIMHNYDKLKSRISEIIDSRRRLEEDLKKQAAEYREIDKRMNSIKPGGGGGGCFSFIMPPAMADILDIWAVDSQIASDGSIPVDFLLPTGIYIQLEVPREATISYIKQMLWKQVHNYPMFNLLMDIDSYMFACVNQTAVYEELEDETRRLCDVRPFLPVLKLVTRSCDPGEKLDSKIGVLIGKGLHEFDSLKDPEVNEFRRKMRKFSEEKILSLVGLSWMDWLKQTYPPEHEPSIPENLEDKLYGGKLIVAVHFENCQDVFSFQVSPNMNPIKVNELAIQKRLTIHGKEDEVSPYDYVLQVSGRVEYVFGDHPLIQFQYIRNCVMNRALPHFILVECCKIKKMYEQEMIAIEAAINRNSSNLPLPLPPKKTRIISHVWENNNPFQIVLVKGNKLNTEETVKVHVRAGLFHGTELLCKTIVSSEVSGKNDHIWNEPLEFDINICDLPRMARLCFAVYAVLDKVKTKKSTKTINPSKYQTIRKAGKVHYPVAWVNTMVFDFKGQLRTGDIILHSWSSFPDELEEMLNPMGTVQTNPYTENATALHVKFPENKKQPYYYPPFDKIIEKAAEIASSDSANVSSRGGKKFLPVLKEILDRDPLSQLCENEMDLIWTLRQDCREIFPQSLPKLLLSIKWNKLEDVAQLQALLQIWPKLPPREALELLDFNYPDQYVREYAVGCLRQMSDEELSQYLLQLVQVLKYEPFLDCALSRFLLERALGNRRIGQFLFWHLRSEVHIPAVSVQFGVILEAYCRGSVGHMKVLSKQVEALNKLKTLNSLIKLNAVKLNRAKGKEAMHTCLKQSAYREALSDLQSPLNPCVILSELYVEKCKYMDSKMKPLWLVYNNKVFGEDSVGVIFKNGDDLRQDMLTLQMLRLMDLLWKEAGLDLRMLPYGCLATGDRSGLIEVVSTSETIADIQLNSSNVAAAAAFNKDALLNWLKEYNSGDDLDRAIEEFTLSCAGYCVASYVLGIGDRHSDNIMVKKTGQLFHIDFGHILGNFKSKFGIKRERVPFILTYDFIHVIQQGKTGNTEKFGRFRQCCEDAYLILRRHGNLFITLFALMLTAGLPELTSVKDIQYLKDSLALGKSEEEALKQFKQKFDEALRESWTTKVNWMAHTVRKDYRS
As to the kind of experiment: PI3K beta kinase assay (Kinase-Glo luminescence). In short, it runs like this:
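Enzyme: BV949 p85(iSH2)-Gly linker-p110β FL-His, 25 nM. Substrate: PI 10 μg/mL. ATP: 1 μM, added to start. Buffer: Tris pH 7.5 10 mM, MgCl2 3 mM, NaCl 50 mM, CHAPS 0.05%, DTT 1 mM. RT, 60 min. Readout: Kinase-Glo. IC50 by 4-parameter fit.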

Assay [3] addresses T3, PI3K delta (Homo sapiens, UniProt O00329).
T3 construct: for the full-length p110-d subunit are generated and fused by overlapping PCR; p85(iSH2) fusion partner (see partner chain) (N); His tag (C); made in house; host or cells: baculovirus; Tn5 (Trichoplusia ni) or TiniPro insect cells
As to the kind of experiment: PI3K delta kinase assay (Kinase-Glo luminescence). In a few lines: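 Construct BV-1060, p85 iSH2–linker–full-length p110δ, His-tagged, at 10 nM, with 1 μM ATP and 10 μg/mL phosphatidylinositol in pH 7.5 Tris, 3 mM MgCl2, 50 mM NaCl, 0.05% CHAPS. Run 60 min at room temperature; remaining ATP read by Kinase-Glo luminescence; IC50 from 4-parameter logistic fit of 8 concentrations.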

T3 sequence (O00329 with tags, fused parts or gaps limits assumed): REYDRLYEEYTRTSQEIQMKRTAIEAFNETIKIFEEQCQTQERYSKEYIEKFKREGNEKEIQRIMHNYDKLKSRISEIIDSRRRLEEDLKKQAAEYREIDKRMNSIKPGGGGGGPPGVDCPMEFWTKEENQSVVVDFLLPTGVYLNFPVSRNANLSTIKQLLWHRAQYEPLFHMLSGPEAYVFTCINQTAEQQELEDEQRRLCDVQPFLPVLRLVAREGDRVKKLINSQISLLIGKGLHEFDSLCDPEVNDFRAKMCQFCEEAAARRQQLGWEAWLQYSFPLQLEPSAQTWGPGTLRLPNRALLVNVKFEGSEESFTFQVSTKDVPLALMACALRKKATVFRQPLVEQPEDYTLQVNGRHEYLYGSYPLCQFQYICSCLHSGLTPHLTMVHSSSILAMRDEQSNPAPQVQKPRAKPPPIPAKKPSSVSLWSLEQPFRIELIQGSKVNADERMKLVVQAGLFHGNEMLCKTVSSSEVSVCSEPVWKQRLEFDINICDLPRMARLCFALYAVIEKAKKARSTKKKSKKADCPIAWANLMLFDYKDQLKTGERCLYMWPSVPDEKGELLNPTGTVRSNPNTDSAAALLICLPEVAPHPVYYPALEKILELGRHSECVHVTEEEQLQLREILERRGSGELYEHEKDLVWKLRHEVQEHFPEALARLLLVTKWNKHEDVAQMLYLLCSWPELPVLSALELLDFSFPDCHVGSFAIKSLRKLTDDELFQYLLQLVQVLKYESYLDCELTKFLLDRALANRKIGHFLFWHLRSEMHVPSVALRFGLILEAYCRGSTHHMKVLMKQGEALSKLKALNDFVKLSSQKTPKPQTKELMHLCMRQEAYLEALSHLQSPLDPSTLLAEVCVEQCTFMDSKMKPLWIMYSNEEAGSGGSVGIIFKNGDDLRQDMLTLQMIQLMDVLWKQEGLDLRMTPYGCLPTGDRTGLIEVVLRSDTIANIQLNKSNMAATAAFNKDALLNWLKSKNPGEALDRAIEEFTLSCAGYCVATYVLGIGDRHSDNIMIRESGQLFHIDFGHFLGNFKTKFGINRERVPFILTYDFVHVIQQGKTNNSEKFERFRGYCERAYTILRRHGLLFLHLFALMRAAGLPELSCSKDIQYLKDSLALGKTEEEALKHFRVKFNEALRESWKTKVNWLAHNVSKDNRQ
T1 sequence (P42336 with tags, fused parts or gaps limits assumed): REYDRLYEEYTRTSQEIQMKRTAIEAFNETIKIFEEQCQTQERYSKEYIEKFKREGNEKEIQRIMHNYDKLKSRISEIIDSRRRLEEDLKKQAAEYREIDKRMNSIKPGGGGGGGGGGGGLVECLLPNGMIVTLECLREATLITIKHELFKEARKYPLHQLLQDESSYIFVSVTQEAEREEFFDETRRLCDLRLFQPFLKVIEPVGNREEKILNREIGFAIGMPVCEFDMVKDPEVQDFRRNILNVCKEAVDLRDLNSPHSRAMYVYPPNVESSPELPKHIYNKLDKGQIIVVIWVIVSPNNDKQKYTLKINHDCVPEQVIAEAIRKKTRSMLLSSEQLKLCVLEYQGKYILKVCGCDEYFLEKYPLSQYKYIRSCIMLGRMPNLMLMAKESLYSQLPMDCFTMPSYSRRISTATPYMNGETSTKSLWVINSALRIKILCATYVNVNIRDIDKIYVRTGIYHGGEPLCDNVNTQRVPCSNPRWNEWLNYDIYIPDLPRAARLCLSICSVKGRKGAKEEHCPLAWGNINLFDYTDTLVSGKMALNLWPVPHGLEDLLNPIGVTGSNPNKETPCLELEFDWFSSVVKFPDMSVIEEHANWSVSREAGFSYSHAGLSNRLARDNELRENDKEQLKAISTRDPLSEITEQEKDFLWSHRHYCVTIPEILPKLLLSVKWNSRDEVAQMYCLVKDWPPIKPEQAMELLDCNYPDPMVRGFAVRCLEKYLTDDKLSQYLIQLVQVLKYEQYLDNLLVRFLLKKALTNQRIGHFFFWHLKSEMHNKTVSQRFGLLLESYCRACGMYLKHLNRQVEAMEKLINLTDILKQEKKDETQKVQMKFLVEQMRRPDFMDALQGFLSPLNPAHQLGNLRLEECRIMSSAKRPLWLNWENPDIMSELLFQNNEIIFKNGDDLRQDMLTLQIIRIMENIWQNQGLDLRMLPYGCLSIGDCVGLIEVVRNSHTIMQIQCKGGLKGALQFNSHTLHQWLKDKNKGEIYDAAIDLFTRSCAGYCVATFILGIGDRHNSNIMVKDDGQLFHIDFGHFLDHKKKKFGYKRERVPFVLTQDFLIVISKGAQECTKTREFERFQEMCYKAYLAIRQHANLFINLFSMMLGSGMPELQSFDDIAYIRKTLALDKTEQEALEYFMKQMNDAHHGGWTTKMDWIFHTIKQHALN

Take `Cc1nn(C(C)C)cc1-n1c(=O)n(C)c2cnc3ccc(-c4ccc(N)nc4)cc3c21` [Example 23.2, 8-(6-Amino-pyridin-3-yl)-1-(1-isopropyl-3-methyl-1H-pyrazol-4-yl)-3-methyl-1,3-dihydro-imidazo[4,5-c]quinolin-2-one]: the IC50 stood at 35 nM in assay [1], 197 nM in assay [2] and 43 nM in assay [3].

`CCNC(=O)c1cc(-c2ccc3ncc4c(c3c2)n(-c2cn(C)nc2C)c(=O)n4C)cnc1NC` [Example 242.1, 5-[1-(1,3-Dimethyl-1H-pyrazol-4-yl)-3-methyl-2-oxo-2,3-dihydro-1H-imidazo[4,5-c]quinolin-8-yl]-N-ethyl-2-methylamino-nicotinamide]: the IC50 in assay [1] was 23 nM; in assay [2], 67 nM; in assay [3] it was 10 nM.

In the case of `Cc1nn(C)cc1-n1c(=O)n(C)c2cnc3ccc(-c4cncc(N)c4)cc3c21` [Example 45.1, 8-(5-Amino-pyridin-3-yl)-1-(1,3-dimethyl-1H-pyrazol-4-yl)-3-methyl-1,3-dihydro-imidazo[4,5-c]quinolin-2-one], the concentration for half-maximal inhibition (IC50) in assay [1] came out at 14 nM; in assay [2], 47 nM; in assay [3] it was 19 nM.

Consider `CCNc1cc(-c2ccc3ncc4c(c3c2)n(-c2cn(CC)nc2C)c(=O)n4C)cnc1COC` [Example 157, 8-(5-Ethylamino-6-methoxymethyl-pyridin-3-yl)-1-(1-ethyl-3-methyl-1H-pyrazol-4-yl)-3-methyl-1,3-dihydro-imidazo[4,5-c]quinolin-2-one], for which the IC50 is 7 nM in assay [1], 28 nM in assay [2] and 9 nM in assay [3].

With `Cc1nn(C)cc1-n1c(=O)n(C)c2cnc3ccc(-c4cncc(OC(F)F)c4)cc3c21` [Example 183, 8-(5-Difluoromethoxy-pyridin-3-yl)-1-(1,3-dimethyl-1H-pyrazol-4-yl)-3-methyl-1,3-dihydro-imidazo[4,5-c]quinolin-2-one], the half-inhibitory concentration (IC50) turned out to be 3 nM in assay [1], 4 nM in assay [2] and 4 nM in assay [3].

With `Cc1nn(C)cc1-n1c(=O)[nH]c2cnc3ccc(-c4cnc(N(C)C)nc4)cc3c21` [Example 207, 8-(2-Dimethylamino-pyrimidin-5-yl)-1-(1,3-dimethyl-1H-pyrazol-4-yl)-1,3-dihydro-imidazo[4,5-c]quinolin-2-one], the IC50 stood at 14 nM in assay [1], 167 nM in assay [2] and 29 nM in assay [3].

Consider `CCOc1ccc(-c2ccc3ncc4c(c3c2)n(-c2c(C)nn(CC(=O)N(C)C)c2C)c(=O)n4C)cn1` [Example 3.12, 2-{4-[8-(6-Ethoxy-pyridin-3-yl)-3-methyl-2-oxo-2,3-dihydro-imidazo[4,5-c]quinolin-1-yl]-3,5-dimethyl-pyrazol-1-yl}-N,N-dimethyl-acetamide], for which the results for the half-inhibitory concentration (IC50) in assay [1] and in assay [3] were 57 nM and 721 nM, respectively.

Turning to `COc1cc(-c2ccc3ncc4c(c3c2)n(-c2cn(C)nc2C)c(=O)n4C)cnc1C` [Example 184, 1-(1,3-Dimethyl-1H-pyrazol-4-yl)-8-(5-methoxy-6-methyl-pyridin-3-yl)-3-methyl-1,3-dihydro-imidazo[4,5-c]quinolin-2-one], the IC50 in assay [1] was found to be 4 nM; in assay [2], 10 nM; in assay [3], 4 nM.

Turning to `COCCOc1cc(-c2ccc3ncc4c(c3c2)n(-c2cn(C)nc2C)c(=O)n4C)cnc1CO` [Example 244, 1-(1,3-Dimethyl-1H-pyrazol-4-yl)-8-[6-hydroxymethyl-5-(2-methoxy-ethoxy)-pyridin-3-yl]-3-methyl-1,3-dihydro-imidazo[4,5-c]quinolin-2-one], the results for the IC50 in assay [1], in assay [2] and in assay [3] were 30 nM, 188 nM and 17 nM, respectively.

For `Cc1ncc(-c2ccc3ncc4c(c3c2)n(-c2cn(C)nc2Cl)c(=O)n4C)cc1N` [Example 88.1, 8-(5-Amino-6-methyl-pyridin-3-yl)-1-(3-chloro-1-methyl-1H-pyrazol-4-yl)-3-methyl-1,3-dihydro-imidazo[4,5-c]quinolin-2-one], the IC50 is 11 nM in assay [1], 28 nM in assay [2] and 4 nM in assay [3].

Consider `Cc1nn(C)cc1-n1c(=O)n(C)c2cnc3ccc(-c4cnc5c(c4)nc(N(C)C)n5C)cc3c21` [Example 70, 8-(2-Dimethylamino-3-methyl-3H-imidazo[4,5-b]pyridin-6-yl)-1-(1,3-dimethyl-1H-pyrazol-4-yl)-3-methyl-1,3-dihydro-imidazo[4,5-c]quinolin-2-one], for which the IC50 was found to be 375 nM in assay [1] and 163 nM in assay [3].

Regarding `CCOc1cc(-c2ccc3ncc4c(c3c2)n(-c2cn(C)nc2C)c(=O)n4C)cnc1CO` [Example 243, 1-(1,3-Dimethyl-1H-pyrazol-4-yl)-8-(5-ethoxy-6-hydroxymethyl-pyridin-3-yl)-3-methyl-1,3-dihydro-imidazo[4,5-c]quinolin-2-one], the IC50 in assay [1] was 11 nM; in assay [2], 47 nM; in assay [3], 7 nM.

Turning to `CCNc1cc(-c2ccc3ncc4c(c3c2)n(-c2c(C)nn(CCO)c2C)c(=O)n4C)cnc1C` [Example 210, 8-(5-Ethylamino-6-methyl-pyridin-3-yl)-1-[1-(2-hydroxy-ethyl)-3,5-dimethyl-1H-pyrazol-4-yl]-3-methyl-1,3-dihydro-imidazo[4,5-c]quinolin-2-one], the IC50 came out at 24 nM in assay [1], 49 nM in assay [2] and 13 nM in assay [3].

For `Cc1nn(C)cc1-n1c(=O)n(C)c2cnc3ccc(-c4ccc(N)nc4)cc3c21` [Example 23.1, 8-(6-Amino-pyridin-3-yl)-1-(1,3-dimethyl-1H-pyrazol-4-yl)-3-methyl-1,3-dihydro-imidazo[4,5-c]quinolin-2-one], the 50% inhibitory concentration (IC50) in assay [1] was 8 nM; in assay [2], 41 nM; in assay [3] it was 15 nM.

As for `Cc1nn(CC(=O)N2CCC2)cc1-n1c(=O)n(C)c2cnc3ccc(-c4cncc(OC(C)C)c4)cc3c21` [Example 205, 1-[1-(2-Azetidin-1-yl-2-oxo-ethyl)-3-methyl-1H-pyrazol-4-yl]-8-(5-isopropoxy-pyridin-3-yl)-3-methyl-1,3-dihydro-imidazo[4,5-c]quinolin-2-one], the figures for the IC50 in assay [1], in assay [2] and in assay [3] were 5 nM, 17 nM and 12 nM, respectively.

With `CCOc1ccc(-c2ccc3ncc4c(c3c2)n(-c2cn(CC(=O)N3CCC3)nc2C)c(=O)n4C)cn1` [Example 138, 1-[1-(2-Azetidin-1-yl-2-oxo-ethyl)-3-methyl-1H-pyrazol-4-yl]-8-(6-ethoxy-pyridin-3-yl)-3-methyl-1,3-dihydro-imidazo[4,5-c]quinolin-2-one], the figures for the IC50 in assay [1], in assay [2] and in assay [3] were 13 nM, 377 nM and 42 nM, respectively.

Regarding `Cn1cc(-n2c(=O)n(C)c3cnc4ccc(-c5cnc(N)c(CO)c5)cc4c32)c(Cl)n1` [Example 169.3, 8-(6-Amino-5-hydroxymethyl-pyridin-3-yl)-1-(3-chloro-1-methyl-1H-pyrazol-4-yl)-3-methyl-1,3-dihydro-imidazo[4,5-c]quinolin-2-one], the 50% inhibitory concentration (IC50) in assay [1] is 5 nM; in assay [2], 7 nM; in assay [3] it was < 3 nM.

Turning to `CCn1cc(-n2c(=O)n(C)c3cnc4ccc(-c5cnc(NC)c(Cl)c5)cc4c32)c(C)n1` [Example 146.2, 8-(5-Chloro-6-methylamino-pyridin-3-yl)-1-(1-ethyl-3-methyl-1H-pyrazol-4-yl)-3-methyl-1,3-dihydro-imidazo[4,5-c]quinolin-2-one], the IC50 in assay [1] stood at 119 nM; in assay [2] it was 66 nM; in assay [3], 30 nM.

For `CCN(CC)C(=O)Cn1cc(-n2c(=O)n(C)c3cnc4ccc(-c5ccc(C)nc5)cc4c32)c(C)n1` [Example 139, N,N-Diethyl-2-{3-methyl-4-[3-methyl-8-(6-methyl-pyridin-3-yl)-2-oxo-2,3-dihydro-imidazo[4,5-c]quinolin-1-yl]-pyrazol-1-yl}-acetamide], the IC50 in assay [1] amounted to 17 nM; in assay [3], 69 nM.

In the case of `Cc1nn(C)cc1-n1c(=O)n(C)c2cnc3ccc(-c4ccc(N5CC[C@@H](O)C5)nc4)cc3c21` [Example 212.1, 1-(1,3-Dimethyl-1H-pyrazol-4-yl)-8-[6-((R)-3-hydroxy-pyrrolidin-1-yl)-pyridin-3-yl]-3-methyl-1,3-dihydro-imidazo[4,5-c]quinolin-2-one], the IC50 was found to be 53 nM in assay [1] and 111 nM in assay [3].

Regarding `COCCN(C)C(=O)Cn1cc(-n2c(=O)n(C)c3cnc4ccc(-c5ccccc5)cc4c32)c(C)n1` [Example 137, N-(2-Methoxy-ethyl)-N-methyl-2-[3-methyl-4-(3-methyl-2-oxo-8-phenyl-2,3-dihydro-imidazo[4,5-c]quinolin-1-yl)-pyrazol-1-yl]-acetamide], the IC50 stood at 161 nM in assay [1] and 922 nM in assay [3].

Broadly, the IC50 is the concentration at which inhibition is half-maximal.
